# Test results as given in paper PMC10066365, “Nemacol is a small molecule inhibitor of C. elegans vesicular acetylcholine transporter with anthelmintic potential” (Nature Communications, 2023).
# Assays:
# Pristionchus pacificus = Pristionchus pacificus motor disruption dose-response on solid media, 1 h; details: for mean % any phene (coiled, jerky-Unc or paralyzed): Pristionchus pacificus young adults, mean of three biological replicates; for EC50: Pristionchus pacificus, 1 h, read-out: P. pacificus motor disruption EC50; for rep 1 atypical locomotion / rep 1 coiled / rep 1 no phene / rep 1 paralyzed: count of 20 animals per trial, one hour
# Method: Locomotor phenotype analyses were done in 24-well plates with 1 mL of MYOB substrate (27.5 g Trizma HCl, 12 g Trizma Base, 230 g bacto tryptone, 10 g NaCl, 0.4 g cholesterol (95%)) seeded with 25 µL of OP50 Escherichia coli on each well. Each compound was added to the MYOB substrate before pouring to achieve the desired final concentrations of 30 µM or 60 µM after diffusion through the media. Synchronized young adult worms are transferred into each well using a platinum wire pick. A Leica MZ75 stereomicroscope was used to visualize the movement of worms on the solid substrate. The specific dominant locomotor phenotype (i.e. ‘Punc’, ‘paralyzed’, ‘coiler’ or ‘wild-type locomotion’) was scored after the touch on the head with a platinum wire over a ~3–5 s of observation. […] Coiled animals were not scored as paralyzed despite sometimes not responding to light touch.
# [1] = system: Dirofilaria immitis L3/L4; assay: Dirofilaria immitis L3/L4 motility assay (DiroImager, 72 h)
# [2] = conc 3.75, observed at one hour
smiles,measurement,setting,value
"O[C@@H]1CCCC[C@H]1N1CCC(c2ccccc2)CC1 (racemic) [vesamicol, reference compound]","mean % any phene (coiled, jerky-Unc or paralyzed)",Pristionchus pacificus; [2],0%
same,"mean % any phene (coiled, jerky-Unc or paralyzed)","Pristionchus pacificus; conc 15, observed at one hour",0.8333%
same,"mean % any phene (coiled, jerky-Unc or paralyzed)","Pristionchus pacificus; conc 60, observed at one hour",9.167%
same,EC50,Pristionchus pacificus,> 60 µM
O=[N+]([O-])c1ccc(N2CCN(CC3CCCCC3)CC2)cc1 [Nemacol-1],activity against D. immitis (EC50),[1],low micromolar activity
same,"% effect (motility), DIROIM L4",[1]; 0.016 µM,0%
same,"% effect (motility), DIROIM L4",[1]; 0.08 µM,0%
same,"% effect (motility), DIROIM L4",[1]; 0.4 µM,0%
same,"% effect (motility), DIROIM L4",[1]; 2 µM,5%
same,"% effect (motility), DIROIM L4",[1]; 10 µM,100%
same,"% effect (motility), DIROIM L4",[1]; 50 µM,100%
same,"mean % any phene (coiled, jerky-Unc or paralyzed)",Pristionchus pacificus; [2],0%
same,"mean % any phene (coiled, jerky-Unc or paralyzed)","Pristionchus pacificus; conc 15, observed at one hour",56.6667%
same,"mean % any phene (coiled, jerky-Unc or paralyzed)","Pristionchus pacificus; conc 60, observed at one hour",100%
same,EC50,Pristionchus pacificus,14.1 ± 2.9 µM
same,rep 1 atypical locomotion,Pristionchus pacificus; conc 3.75,4
same,rep 1 coiled,Pristionchus pacificus; conc 3.75,1
same,rep 1 no phene,Pristionchus pacificus; conc 3.75,15
same,rep 1 paralyzed,Pristionchus pacificus; conc 3.75,0
same,rep 1 atypical locomotion,Pristionchus pacificus; conc 15,13
same,rep 1 coiled,Pristionchus pacificus; conc 15,1
same,rep 1 no phene,Pristionchus pacificus; conc 15,6
same,rep 1 paralyzed,Pristionchus pacificus; conc 15,0
same,rep 1 atypical locomotion,Pristionchus pacificus; conc 60,0
same,rep 1 coiled,Pristionchus pacificus; conc 60,2
same,rep 1 no phene,Pristionchus pacificus; conc 60,0
same,rep 1 paralyzed,Pristionchus pacificus; conc 60,18
CCC1CCC(N2CCN(c3ccc([N+](=O)[O-])cc3)CC2)CC1 (stereo not drawn) [Nemacol-2],"mean % any phene (coiled, jerky-Unc or paralyzed)",Pristionchus pacificus; [2],4.167%
same,"mean % any phene (coiled, jerky-Unc or paralyzed)","Pristionchus pacificus; conc 15, observed at one hour",89.1667%
same,"mean % any phene (coiled, jerky-Unc or paralyzed)","Pristionchus pacificus; conc 60, observed at one hour",100%
same,EC50,Pristionchus pacificus,8.6 ± 1.3 µM
O=[N+]([O-])c1ccc(N2CCN(CC3CC4C=CC3C4)CC2)cc1 (stereo not drawn) [Nemacol-3],"% effect (motility), DIROIM L4","[1]; 2 µM, Dirofilaria immitis L4",0%
same,"% effect (motility), DIROIM L4","[1]; 10 µM, Dirofilaria immitis L4",75%
same,"% effect (motility), DIROIM L4","[1]; 50 µM, Dirofilaria immitis L4",100%
same,"mean % any phene (coiled, jerky-Unc or paralyzed)",Pristionchus pacificus; [2],0%
same,"mean % any phene (coiled, jerky-Unc or paralyzed)","Pristionchus pacificus; conc 15, observed at one hour",16.6667%
same,"mean % any phene (coiled, jerky-Unc or paralyzed)","Pristionchus pacificus; conc 60, observed at one hour",95%
same,EC50,Pristionchus pacificus,24.5 ± 2.2 µM
O=[N+]([O-])c1ccc(N2CCN(CC3CC=CCC3)CC2)cc1 (stereo not drawn) [Nemacol-4],"% effect (motility), DIROIM L4","[1]; 2 µM, Dirofilaria immitis L4",5%
same,"% effect (motility), DIROIM L4","[1]; 10 µM, Dirofilaria immitis L4",100%
same,"% effect (motility), DIROIM L4","[1]; 50 µM, Dirofilaria immitis L4",100%
same,"mean % any phene (coiled, jerky-Unc or paralyzed)",Pristionchus pacificus; [2],0%
same,"mean % any phene (coiled, jerky-Unc or paralyzed)","Pristionchus pacificus; conc 15, observed at one hour",15.8333%
same,"mean % any phene (coiled, jerky-Unc or paralyzed)","Pristionchus pacificus; conc 60, observed at one hour",100%
same,EC50,Pristionchus pacificus,19.2 µM
